Results taken from PubChem BioAssay AID1963435 (Molecular Pharmacology Branch, DTP, NCI, 2024).

Tested on: PANC-1 complex spheroid growth, percent test/control
Assay: Anticancer human tumor PANC-1 cell line growth inhibition [Asc];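 also: spheroids exposed to agents for 7 days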;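 as to viability, T/C: percent viability relative to DMSO vehicle wells taken as 100%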
Conditions: for IC50: curve of first compound; for viability, T/C: stronger effect = lower value
Method in brief: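 Tumor cells were grown as complex spheroids with human endothelial cells (HUVEC) and human mesenchymal stem cells as stroma. Agents were tested alone and in combination, in half-log steps down from the clinical Cmax, or from 10 microM where Cmax was unknown.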

[1] = second compound 0.0316 µM, first compound 0.00316 µM
[2] = second compound 0.0316 µM, first compound 0.01 µM
[3] = second compound 0.0316 µM, first compound 0.0316 µM
[4] = second compound 0.0316 µM, first compound 0.1 µM
[5] = second compound 0.0316 µM, first compound 0.316 µM
[6] = second compound 0.0316 µM, first compound 1 µM
[7] = second compound 0.1 µM, first compound 0.00316 µM
[8] = second compound 0.1 µM, first compound 0.01 µM
[9] = second compound 0.1 µM, first compound 0.0316 µM
[10] = second compound 0.1 µM, first compound 0.1 µM
[11] = second compound 0.1 µM, first compound 0.316 µM
[12] = second compound 0.1 µM, first compound 1 µM
[13] = second compound 0.316 µM, first compound 0.00316 µM
[14] = second compound 0.316 µM, first compound 0.01 µM
[15] = second compound 0.316 µM, first compound 0.0316 µM
[16] = second compound 0.316 µM, first compound 0.1 µM
[17] = second compound 0.316 µM, first compound 0.316 µM
[18] = second compound 0.316 µM, first compound 1 µM
[19] = second compound 1 µM, first compound 0.00316 µM
[20] = second compound 1 µM, first compound 0.01 µM
[21] = second compound 1 µM, first compound 0.0316 µM
[22] = second compound 1 µM, first compound 0.1 µM
[23] = second compound 1 µM, first compound 0.316 µM
[24] = second compound 1 µM, first compound 1 µM
[25] = second compound 3.16 µM, first compound 0.00316 µM
[26] = second compound 3.16 µM, first compound 0.01 µM
[27] = second compound 3.16 µM, first compound 0.0316 µM
[28] = second compound 3.16 µM, first compound 0.1 µM
[29] = second compound 3.16 µM, first compound 0.316 µM
[30] = second compound 3.16 µM, first compound 1 µM
[31] = second compound 10 µM, first compound 0.00316 µM
[32] = second compound 10 µM, first compound 0.01 µM
[33] = second compound 10 µM, first compound 0.0316 µM
[34] = second compound 10 µM, first compound 0.1 µM
[35] = second compound 10 µM, first compound 0.316 µM
[36] = second compound 10 µM, first compound 1 µM

CCN1CCN(Cc2ccc(Nc3ncc(F)c(-c4cc(F)c5nc(C)n(C(C)C)c5c4)n3)nc2)CC1 + Cc1c(S(C)(=O)=O)c(-c2cc(F)cc(N3CCN(c4ccc(NS(=O)(=O)c5ccc(NC(CCN6CCC(C(=O)OCCCP(=O)(O)O)CC6)CSc6ccccc6)c(S(=O)(=O)C(F)(F)F)c5)cc4)CC3)c2)c(-c2ccc(Cl)cc2)n1C(C)C
IC50 (second compound 0.0316 µM): > 1 µM
IC50 (second compound 0.1 µM): > 1 µM
IC50 (second compound 0.316 µM): > 1 µM
IC50 (second compound 1 µM): > 1 µM
IC50 (second compound 3.16 µM): > 1 µM
IC50 (second compound 10 µM): > 1 µM
viability, T/C [1]: 93.5%
viability, T/C [2]: 108%
viability, T/C [3]: 102%
viability, T/C [4]: 121%
viability, T/C [5]: 124%
viability, T/C [6]: 129%
viability, T/C [7]: 96%
viability, T/C [8]: 100%
viability, T/C [9]: 99.5%
viability, T/C [10]: 115%
viability, T/C [11]: 121%
viability, T/C [12]: 137%
viability, T/C [13]: 105%
viability, T/C [14]: 116%
viability, T/C [15]: 108%
viability, T/C [16]: 103%
viability, T/C [17]: 123%
viability, T/C [18]: 127%
viability, T/C [19]: 104%
viability, T/C [20]: 101%
viability, T/C [21]: 115%
viability, T/C [22]: 126%
viability, T/C [23]: 115%
viability, T/C [24]: 125%
viability, T/C [25]: 110%
viability, T/C [26]: 104%
viability, T/C [27]: 102%
viability, T/C [28]: 120%
viability, T/C [29]: 123%
viability, T/C [30]: 125%
viability, T/C [31]: 171%
viability, T/C [32]: 188%
viability, T/C [33]: 174%
viability, T/C [34]: 175%
viability, T/C [35]: 168%
viability, T/C [36]: 140%

Cn1ncnc1[C@H]1c2n[nH]c(=O)c3cc(F)cc(c23)N[C@@H]1c1ccc(F)cc1 + Cc1c(S(C)(=O)=O)c(-c2cc(F)cc(N3CCN(c4ccc(NS(=O)(=O)c5ccc(NC(CCN6CCC(C(=O)OCCCP(=O)(O)O)CC6)CSc6ccccc6)c(S(=O)(=O)C(F)(F)F)c5)cc4)CC3)c2)c(-c2ccc(Cl)cc2)n1C(C)C
IC50 (second compound 0.0316 µM): > 0.1 µM
IC50 (second compound 0.1 µM): > 0.1 µM
IC50 (second compound 0.316 µM): > 0.1 µM
IC50 (second compound 1 µM): > 0.1 µM
IC50 (second compound 3.16 µM): > 0.1 µM
IC50 (second compound 10 µM): > 0.1 µM
viability, T/C (second compound 0.0316 µM, first compound 0.000316 µM): 101%
viability, T/C (second compound 0.0316 µM, first compound 0.001 µM): 88.4%
viability, T/C [1]: 98.5%
viability, T/C [2]: 102%
viability, T/C [3]: 110%
viability, T/C [4]: 101%
viability, T/C (second compound 0.1 µM, first compound 0.000316 µM): 96.7%
viability, T/C (second compound 0.1 µM, first compound 0.001 µM): 103%
viability, T/C [7]: 93.5%
viability, T/C [8]: 108%
viability, T/C [9]: 108%
viability, T/C [10]: 103%
viability, T/C (second compound 0.316 µM, first compound 0.000316 µM): 109%
viability, T/C (second compound 0.316 µM, first compound 0.001 µM): 108%
viability, T/C [13]: 106%
viability, T/C [14]: 106%
viability, T/C [15]: 104%
viability, T/C [16]: 110%
viability, T/C (second compound 1 µM, first compound 0.000316 µM): 105%
viability, T/C (second compound 1 µM, first compound 0.001 µM): 99.3%
viability, T/C [19]: 105%
viability, T/C [20]: 106%
viability, T/C [21]: 103%
viability, T/C [22]: 109%
viability, T/C (second compound 3.16 µM, first compound 0.000316 µM): 105%
viability, T/C (second compound 3.16 µM, first compound 0.001 µM): 102%
viability, T/C [25]: 107%
viability, T/C [26]: 114%
viability, T/C [27]: 112%
viability, T/C [28]: 93.5%
viability, T/C (second compound 10 µM, first compound 0.000316 µM): 160%
viability, T/C (second compound 10 µM, first compound 0.001 µM): 176%
viability, T/C [31]: 147%
viability, T/C [32]: 167%
viability, T/C [33]: 169%
viability, T/C [34]: 139%

O=C(c1ccc(F)c(F)c1Nc1ccc(I)cc1F)N1CC(O)([C@@H]2CCCCN2)C1 + Cc1c(S(C)(=O)=O)c(-c2cc(F)cc(N3CCN(c4ccc(NS(=O)(=O)c5ccc(NC(CCN6CCC(C(=O)OCCCP(=O)(O)O)CC6)CSc6ccccc6)c(S(=O)(=O)C(F)(F)F)c5)cc4)CC3)c2)c(-c2ccc(Cl)cc2)n1C(C)C
IC50 (second compound 0.0316 µM): > 1 µM
IC50 (second compound 0.1 µM): > 1 µM
IC50 (second compound 0.316 µM): > 1 µM
IC50 (second compound 1 µM): > 1 µM
IC50 (second compound 3.16 µM): > 1 µM
IC50 (second compound 10 µM): > 1 µM
viability, T/C [1]: 82.4%
viability, T/C [2]: 88%
viability, T/C [3]: 85.4%
viability, T/C [4]: 86.8%
viability, T/C [5]: 93%
viability, T/C [6]: 89%
viability, T/C [7]: 96.5%
viability, T/C [8]: 109%
viability, T/C [9]: 96%
viability, T/C [10]: 84.6%
viability, T/C [11]: 91.8%
viability, T/C [12]: 91.1%
viability, T/C [13]: 99.8%
viability, T/C [14]: 93.5%
viability, T/C [15]: 86.2%
viability, T/C [16]: 89.6%
viability, T/C [17]: 83.8%
viability, T/C [18]: 84%
viability, T/C [19]: 89.9%
viability, T/C [20]: 87.2%
viability, T/C [21]: 88%
viability, T/C [22]: 87.7%
viability, T/C [23]: 94.8%
viability, T/C [24]: 85%
viability, T/C [25]: 104%
viability, T/C [26]: 97.1%
viability, T/C [27]: 89.3%
viability, T/C [28]: 88.6%
viability, T/C [29]: 83.3%
viability, T/C [30]: 78.1%
viability, T/C [31]: 173%
viability, T/C [32]: 175%
viability, T/C [33]: 157%
viability, T/C [34]: 132%
viability, T/C [35]: 142%
viability, T/C [36]: 131%
